Experimental data taken from the NIST ThermoML archive (doi:10.1021/je060271a).
Numbers after ± are expanded uncertainties.

Settings: 323.14 K, Liquid, Vibrating tube method

CCCCCCC(=O)OCC(COC(=O)CCCCCC)(COC(=O)CCCCCC)COC(=O)CCCCCC [pentaerythritol tetraheptanoate]
Settings	mass density [kg/m3]
8083.9 kPa	961.1 ± 1.2
8112.2 kPa	961 ± 1.2
8146.4 kPa	961.1 ± 1.2
8174.7 kPa	961.1 ± 1.2
8204 kPa	961.1 ± 1.2
8239.5 kPa	961.1 ± 1.2
8270.3 kPa	961.2 ± 1.2
8300.6 kPa	961.1 ± 1.2
8335.1 kPa	961.2 ± 1.2
8358.1 kPa	961.3 ± 1.2
8377.9 kPa	961.3 ± 1.2
8401.4 kPa	961.2 ± 1.2
8421.2 kPa	961.3 ± 1.2
8441.4 kPa	961.4 ± 1.2
8465.3 kPa	961.4 ± 1.2
8485.9 kPa	961.3 ± 1.2
8506.7 kPa	961.3 ± 1.2
8527.9 kPa	961.3 ± 1.2
8548.6 kPa	961.4 ± 1.2
8573.6 kPa	961.4 ± 1.2
8594.5 kPa	961.5 ± 1.2
8619.3 kPa	961.5 ± 1.2
8640.2 kPa	961.3 ± 1.2
8661.6 kPa	961.4 ± 1.2
8682.6 kPa	961.4 ± 1.2
9244.8 kPa	961.9 ± 1.2
9604.8 kPa	962.1 ± 1.2
9745.2 kPa	962.3 ± 1.2
9761.3 kPa	962.2 ± 1.2
9775 kPa	962.3 ± 1.2
9934.6 kPa	962.3 ± 1.2
9965.6 kPa	962.4 ± 1.2
9979.5 kPa	962.3 ± 1.2
9996.2 kPa	962.3 ± 1.2
10025 kPa	962.4 ± 1.2
10042 kPa	962.3 ± 1.2
10056 kPa	962.4 ± 1.2
10453 kPa	962.6 ± 1.2
10957 kPa	962.9 ± 1.2
10974 kPa	962.9 ± 1.2
10995 kPa	963 ± 1.2
11012 kPa	962.9 ± 1.2
11032 kPa	963 ± 1.2
11050 kPa	963.1 ± 1.2
11067 kPa	963 ± 1.2
11088 kPa	963 ± 1.2
11123 kPa	963.1 ± 1.2
11141 kPa	963.1 ± 1.2
11162 kPa	963.1 ± 1.2
11180 kPa	963.2 ± 1.2
11202 kPa	963.2 ± 1.2
11220 kPa	963.2 ± 1.2
11238 kPa	963.3 ± 1.2
11259 kPa	963.3 ± 1.2
11278 kPa	963.2 ± 1.2
11296 kPa	963.2 ± 1.2
11317 kPa	963.2 ± 1.2
11335 kPa	963.2 ± 1.2
11354 kPa	963.2 ± 1.2
11679 kPa	963.5 ± 1.2
11702 kPa	963.5 ± 1.2
11722 kPa	963.5 ± 1.2
11742 kPa	963.4 ± 1.2
11765 kPa	963.6 ± 1.2
11786 kPa	963.6 ± 1.2
11806 kPa	963.5 ± 1.2
11826 kPa	963.6 ± 1.2
11850 kPa	963.7 ± 1.2
11871 kPa	963.6 ± 1.2
11892 kPa	963.5 ± 1.2
11914 kPa	963.6 ± 1.2
11934 kPa	963.6 ± 1.2
11958 kPa	963.7 ± 1.2
12004 kPa	963.6 ± 1.2
12461 kPa	964 ± 1.2
12560 kPa	964 ± 1.2
12657 kPa	963.9 ± 1.2
12708 kPa	964 ± 1.2
12732 kPa	964 ± 1.2
12784 kPa	964.2 ± 1.2
12808 kPa	964.1 ± 1.2
12962 kPa	964.3 ± 1.2
12986 kPa	964.3 ± 1.2
13011 kPa	964.3 ± 1.2
13041 kPa	964.2 ± 1.2
13066 kPa	964.4 ± 1.2
13090 kPa	964.3 ± 1.2
13120 kPa	964.4 ± 1.2
13146 kPa	964.4 ± 1.2
13171 kPa	964.4 ± 1.2
13202 kPa	964.3 ± 1.2
13252 kPa	964.5 ± 1.2
13283 kPa	964.5 ± 1.2
13308 kPa	964.4 ± 1.2
13334 kPa	964.6 ± 1.2
13365 kPa	964.6 ± 1.2
13391 kPa	964.5 ± 1.2
13418 kPa	964.6 ± 1.2
13449 kPa	964.6 ± 1.2
13475 kPa	964.7 ± 1.2
13502 kPa	964.6 ± 1.2
13533 kPa	964.6 ± 1.2
13560 kPa	964.7 ± 1.2
13587 kPa	964.5 ± 1.2
13619 kPa	964.7 ± 1.2
13645 kPa	964.7 ± 1.2
13678 kPa	964.8 ± 1.2
13705 kPa	964.6 ± 1.2
13732 kPa	964.8 ± 1.2
13760 kPa	964.7 ± 1.2
13793 kPa	964.8 ± 1.2
